# US10738028B2, “Spiro three-membered ring, spiro five-membered ring peptide deformylase inhibitor and use thereof in antibacteria and anti-tumor” (priority 2016, dated 2020)
# Legend:
# Assay type in all cases: cell-based
# [1] = tested on: Enterococcus faecalis (EFA); test: MIC, two-fold agar dilution (CLSI), clinical isolates; conditions: for Anti-bacterial activity (MIC), strain EFA 15-1: clinical isolate EFA 15-1; for Anti-bacterial activity (MIC), strain EFA 15-2: clinical isolate EFA 15-2; for Anti-bacterial activity (MIC), strain EFA 15-3: clinical isolate EFA 15-3; for Anti-bacterial activity (MIC), strain EFA 15-4: clinical isolate EFA 15-4; for Anti-bacterial activity (MIC), strain EFA 15-5: clinical isolate EFA 15-5; for Anti-bacterial activity (MIC), strain EFA 15-6: clinical isolate EFA 15-6; for Anti-bacterial activity (MIC), strain EFA 15-9: clinical isolate EFA 15-9
# Procedure, shortened: (§1)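 Samples are serially diluted two-fold in agar following CLSI guidance. Plates are then inoculated with the tested strains. The lowest inhibiting concentration is recorded as MIC.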
# [2] = tested on: Enterococcus faecium (EFM); test: as above; conditions: for Anti-bacterial activity (MIC), strain EFM 15-1: clinical isolate EFM 15-1; for Anti-bacterial activity (MIC), strain EFM 15-2: clinical isolate EFM 15-2; for Anti-bacterial activity (MIC), strain EFM 15-3: clinical isolate EFM 15-3; for Anti-bacterial activity (MIC), strain EFM 15-4: clinical isolate EFM 15-4; for Anti-bacterial activity (MIC), strain EFM 15-5: clinical isolate EFM 15-5; for Anti-bacterial activity (MIC), strain EFM 15-6: clinical isolate EFM 15-6
# Procedure, shortened: as §1
# [3] = tested on: Escherichia coli (including ESBLs, non-ESBLs); test: as above; conditions: for Anti-bacterial activity (MIC), strain ECO+ 15-1: clinical isolate ECO+ 15-1; for Anti-bacterial activity (MIC), strain ECO+ 15-2: clinical isolate ECO+ 15-2; for Anti-bacterial activity (MIC), strain ECO+ 15-3: clinical isolate ECO+ 15-3; for Anti-bacterial activity (MIC), strain ECO+ 15-4: clinical isolate ECO+ 15-4; for Anti-bacterial activity (MIC), strain ECO− 15-1: clinical isolate ECO− 15-1; for Anti-bacterial activity (MIC), strain ECO− 15-2: clinical isolate ECO− 15-2; for Anti-bacterial activity (MIC), strain ECO− 15-3: clinical isolate ECO− 15-3; for Anti-bacterial activity (MIC), strain ECO− 15-4: clinical isolate ECO− 15-4
# Procedure, shortened: as §1
# [4] = tested on: Moraxella catarrhalis (BCA); test: as above; conditions: for Anti-bacterial activity (MIC), strain BCA 14-1: clinical isolate BCA 14-1; for Anti-bacterial activity (MIC), strain BCA 14-4: clinical isolate BCA 14-4; for Anti-bacterial activity (MIC), strain BCA 14-5: clinical isolate BCA 14-5; for Anti-bacterial activity (MIC), strain BCA 14-6: clinical isolate BCA 14-6; for Anti-bacterial activity (MIC), strain BCA 14-7: clinical isolate BCA 14-7; for Anti-bacterial activity (MIC), strain BCA 14-8: clinical isolate BCA 14-8; for Anti-bacterial activity (MIC), strain BCA 14-10: clinical isolate BCA 14-10
# Procedure, shortened: as §1
# [5] = tested on: Streptococcus pneoumoniae (SPN); test: as above; conditions: for Anti-bacterial activity (MIC), strain SPN 16-2: clinical isolate SPN 16-2; for Anti-bacterial activity (MIC), strain SPN 16-4: clinical isolate SPN 16-4
# Procedure, shortened: as §1
# [6] = tested on: methicillin-resistant Staphylococcus aureus (MRSA); test: as above; conditions: for Anti-bacterial activity (MIC), strain MRSA 15-1: clinical isolate MRSA 15-1; for Anti-bacterial activity (MIC), strain MRSA 15-2: clinical isolate MRSA 15-2; for Anti-bacterial activity (MIC), strain MRSA 15-3: clinical isolate MRSA 15-3; for Anti-bacterial activity (MIC), strain MRSA 15-4: clinical isolate MRSA 15-4
# Procedure, shortened: as §1
# [7] = tested on: methicillin-resistant Staphylococcus epidermidis (MRSE); test: as above; conditions: for Anti-bacterial activity (MIC), strain MRSE 15-1: clinical isolate MRSE 15-1; for Anti-bacterial activity (MIC), strain MRSE 15-2: clinical isolate MRSE 15-2; for Anti-bacterial activity (MIC), strain MRSE 15-3: clinical isolate MRSE 15-3; for Anti-bacterial activity (MIC), strain MRSE 15-7: clinical isolate MRSE 15-7
# Procedure, shortened: as §1
# [8] = tested on: methicillin-sensitive Staphylococcus aureus (MSSA); test: as above; conditions: for Anti-bacterial activity (MIC), strain MSSA 15-3: clinical isolate MSSA 15-3; for Anti-bacterial activity (MIC), strain MSSA 15-4: clinical isolate MSSA 15-4; for Anti-bacterial activity (MIC), strain MSSA 15-5: clinical isolate MSSA 15-5; for Anti-bacterial activity (MIC), strain MSSA 15-6: clinical isolate MSSA 15-6
# Procedure, shortened: as §1
# [9] = tested on: methicillin-sensitive Staphylococcus epidermidis (MSSE); test: as above; conditions: for Anti-bacterial activity (MIC), strain MSSE 15-3: clinical isolate MSSE 15-3; for Anti-bacterial activity (MIC), strain MSSE 15-4: clinical isolate MSSE 15-4; for Anti-bacterial activity (MIC), strain MSSE 15-5: clinical isolate MSSE 15-5; for Anti-bacterial activity (MIC), strain MSSE 15-6: clinical isolate MSSE 15-6
# Procedure, shortened: as §1
# [10] = tested on: HCT-116 colorectal cancer cell line; test: CCK-8 proliferation inhibition; conditions: Homo sapiens, HCT-116, 72 h, concentration of 30 μM; 72 hours; CCK-8; read-out: HCT116 inhibition rate/%
# Procedure, shortened: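 Cells were plated overnight at 2000 cells/well, then compound in culture medium was added at a range of final concentrations. After 72 hours in a CO2 incubator, medium was replaced with 1:10 CCK-8 solution for the read-out.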
compound,measurement,setting,value
"O=CN(O)C[C@@H](CC1CCCC1)C(=O)N1CC2(CC2)C[C@H]1c1nc2ccccc2[nH]1 [Example 42, N—((R)-3-((S)-6-(1H-benzimidazol-2-yl)-5-azaspiro[2.4]heptane-5-yl)-2-(cyclopentylmethyl)-3-propylcarbonyl)-N-hydroxyformamide]","Anti-bacterial activity (MIC), strain EFA 15-1",[1],16 µg/mL
same,"Anti-bacterial activity (MIC), strain EFA 15-2",[1],16 µg/mL
same,"Anti-bacterial activity (MIC), strain EFA 15-3",[1],4 µg/mL
same,"Anti-bacterial activity (MIC), strain EFA 15-4",[1],16 µg/mL
same,"Anti-bacterial activity (MIC), strain EFA 15-5",[1],16 µg/mL
same,"Anti-bacterial activity (MIC), strain EFA 15-6",[1],16 µg/mL
same,"Anti-bacterial activity (MIC), strain EFA 15-9",[1],16 µg/mL
same,"Anti-bacterial activity (MIC), strain EFM 15-1",[2],2 µg/mL
same,"Anti-bacterial activity (MIC), strain EFM 15-2",[2],4 µg/mL
same,"Anti-bacterial activity (MIC), strain EFM 15-3",[2],1 µg/mL
same,"Anti-bacterial activity (MIC), strain EFM 15-4",[2],4 µg/mL
same,"Anti-bacterial activity (MIC), strain EFM 15-5",[2],2 µg/mL
same,"Anti-bacterial activity (MIC), strain EFM 15-6",[2],4 µg/mL
same,"Anti-bacterial activity (MIC), strain ECO+ 15-1",[3],16 µg/mL
same,"Anti-bacterial activity (MIC), strain ECO+ 15-2",[3],32 µg/mL
same,"Anti-bacterial activity (MIC), strain ECO+ 15-3",[3],32 µg/mL
same,"Anti-bacterial activity (MIC), strain ECO+ 15-4",[3],16 µg/mL
same,"Anti-bacterial activity (MIC), strain ECO− 15-1",[3],32 µg/mL
same,"Anti-bacterial activity (MIC), strain ECO− 15-2",[3],32 µg/mL
same,"Anti-bacterial activity (MIC), strain ECO− 15-3",[3],32 µg/mL
same,"Anti-bacterial activity (MIC), strain ECO− 15-4",[3],32 µg/mL
same,"Anti-bacterial activity (MIC), strain BCA 14-1",[4],1 µg/mL
same,"Anti-bacterial activity (MIC), strain BCA 14-4",[4],2 µg/mL
same,"Anti-bacterial activity (MIC), strain BCA 14-5",[4],2 µg/mL
same,"Anti-bacterial activity (MIC), strain BCA 14-6",[4],2 µg/mL
same,"Anti-bacterial activity (MIC), strain BCA 14-7",[4],1 µg/mL
same,"Anti-bacterial activity (MIC), strain BCA 14-8",[4],4 µg/mL
same,"Anti-bacterial activity (MIC), strain BCA 14-10",[4],1 µg/mL
same,"Anti-bacterial activity (MIC), strain SPN 16-2",[5],1 µg/mL
same,"Anti-bacterial activity (MIC), strain SPN 16-4",[5],16 µg/mL
same,"Anti-bacterial activity (MIC), strain MRSA 15-1",[6],2 µg/mL
same,"Anti-bacterial activity (MIC), strain MRSA 15-2",[6],2 µg/mL
same,"Anti-bacterial activity (MIC), strain MRSA 15-3",[6],1 µg/mL
same,"Anti-bacterial activity (MIC), strain MRSA 15-4",[6],1 µg/mL
same,"Anti-bacterial activity (MIC), strain MRSE 15-1",[7],2 µg/mL
same,"Anti-bacterial activity (MIC), strain MRSE 15-2",[7],2 µg/mL
same,"Anti-bacterial activity (MIC), strain MRSE 15-3",[7],2 µg/mL
same,"Anti-bacterial activity (MIC), strain MRSE 15-7",[7],2 µg/mL
same,"Anti-bacterial activity (MIC), strain MSSA 15-3",[8],2 µg/mL
same,"Anti-bacterial activity (MIC), strain MSSA 15-4",[8],2 µg/mL
same,"Anti-bacterial activity (MIC), strain MSSA 15-5",[8],1 µg/mL
same,"Anti-bacterial activity (MIC), strain MSSA 15-6",[8],2 µg/mL
same,"Anti-bacterial activity (MIC), strain MSSE 15-3",[9],2 µg/mL
same,"Anti-bacterial activity (MIC), strain MSSE 15-4",[9],2 µg/mL
same,"Anti-bacterial activity (MIC), strain MSSE 15-5",[9],2 µg/mL
same,"Anti-bacterial activity (MIC), strain MSSE 15-6",[9],2 µg/mL
same,inhibition at 30 µM,[10],14%
"CCCC[C@H](CC(=O)NO)C(=O)N1CC2(CC2)C[C@H]1C(=O)Nc1ccc(N2CCOCC2)cc1 [Example 43, (S)-5-((R)-2-(2-(hydroxyamino)-2-oxoethyl)hexanoyl)-N-(4-morpholinophenyl)-5-spiro[2.4]heptane-6-carboxamide]","Anti-bacterial activity (MIC), strain EFA 15-1",[1],> 32 µg/mL
same,"Anti-bacterial activity (MIC), strain EFA 15-2",[1],> 32 µg/mL
same,"Anti-bacterial activity (MIC), strain EFA 15-3",[1],> 32 µg/mL
same,"Anti-bacterial activity (MIC), strain EFA 15-4",[1],> 32 µg/mL
same,"Anti-bacterial activity (MIC), strain EFA 15-5",[1],> 32 µg/mL
same,"Anti-bacterial activity (MIC), strain EFA 15-6",[1],> 32 µg/mL
same,"Anti-bacterial activity (MIC), strain EFA 15-9",[1],> 32 µg/mL
same,"Anti-bacterial activity (MIC), strain EFM 15-1",[2],> 32 µg/mL
same,"Anti-bacterial activity (MIC), strain EFM 15-2",[2],> 32 µg/mL
same,"Anti-bacterial activity (MIC), strain EFM 15-3",[2],> 32 µg/mL
same,"Anti-bacterial activity (MIC), strain EFM 15-4",[2],> 32 µg/mL
same,"Anti-bacterial activity (MIC), strain EFM 15-5",[2],1 µg/mL
same,"Anti-bacterial activity (MIC), strain EFM 15-6",[2],2 µg/mL
same,"Anti-bacterial activity (MIC), strain ECO+ 15-1",[3],1 µg/mL
same,"Anti-bacterial activity (MIC), strain ECO+ 15-2",[3],> 32 µg/mL
same,"Anti-bacterial activity (MIC), strain ECO+ 15-3",[3],> 32 µg/mL
same,"Anti-bacterial activity (MIC), strain ECO+ 15-4",[3],1 µg/mL
same,"Anti-bacterial activity (MIC), strain ECO− 15-1",[3],> 32 µg/mL
same,"Anti-bacterial activity (MIC), strain ECO− 15-2",[3],> 32 µg/mL
same,"Anti-bacterial activity (MIC), strain ECO− 15-3",[3],> 32 µg/mL
same,"Anti-bacterial activity (MIC), strain ECO− 15-4",[3],> 32 µg/mL
same,"Anti-bacterial activity (MIC), strain BCA 14-1",[4],2 µg/mL
same,"Anti-bacterial activity (MIC), strain BCA 14-4",[4],2 µg/mL
same,"Anti-bacterial activity (MIC), strain BCA 14-5",[4],1 µg/mL
same,"Anti-bacterial activity (MIC), strain BCA 14-6",[4],1 µg/mL
same,"Anti-bacterial activity (MIC), strain BCA 14-7",[4],2 µg/mL
same,"Anti-bacterial activity (MIC), strain BCA 14-8",[4],2 µg/mL
same,"Anti-bacterial activity (MIC), strain BCA 14-10",[4],2 µg/mL
same,"Anti-bacterial activity (MIC), strain SPN 16-2",[5],1 µg/mL
same,"Anti-bacterial activity (MIC), strain SPN 16-4",[5],1 µg/mL
same,"Anti-bacterial activity (MIC), strain MRSA 15-1",[6],1 µg/mL
same,"Anti-bacterial activity (MIC), strain MRSA 15-2",[6],4 µg/mL
same,"Anti-bacterial activity (MIC), strain MRSA 15-3",[6],1 µg/mL
same,"Anti-bacterial activity (MIC), strain MRSA 15-4",[6],4 µg/mL
same,"Anti-bacterial activity (MIC), strain MRSE 15-1",[7],1 µg/mL
same,"Anti-bacterial activity (MIC), strain MRSE 15-2",[7],4 µg/mL
same,"Anti-bacterial activity (MIC), strain MRSE 15-3",[7],4 µg/mL
same,"Anti-bacterial activity (MIC), strain MRSE 15-7",[7],1 µg/mL
same,"Anti-bacterial activity (MIC), strain MSSA 15-3",[8],4 µg/mL
same,"Anti-bacterial activity (MIC), strain MSSA 15-4",[8],4 µg/mL
same,"Anti-bacterial activity (MIC), strain MSSA 15-5",[8],1 µg/mL
same,"Anti-bacterial activity (MIC), strain MSSA 15-6",[8],4 µg/mL
same,"Anti-bacterial activity (MIC), strain MSSE 15-3",[9],1 µg/mL
same,"Anti-bacterial activity (MIC), strain MSSE 15-4",[9],1 µg/mL
same,"Anti-bacterial activity (MIC), strain MSSE 15-5",[9],1 µg/mL
same,"Anti-bacterial activity (MIC), strain MSSE 15-6",[9],1 µg/mL
same,inhibition at 30 µM,[10],6%
